Assays:
[1] = Single oral and intravenous dose pharmacokinetics, dose range-finding study in beagle dogs; type: in vivo, beagle dog; settings: for AUC(0-t) / MRT / Vd / half-life / AUC(0-inf) / CL/F / Cmax: dog, plasma; for Vd: read-out: VdSS
Experimental: PK of single oral doses of the scyllo-cyclohexanhexyl was also investigated in a preliminary fashion in a dose range-finding study in 5 beagle dogs. […] The Cmax and AUC values increased proportionally with dose, consistent with observations in the larger study. Estimates of t½ ranged from 2 to 5 hours. Neither dose nor route of administration had any clear effect on t½, MRT, Cl/F or Vdss.

in vivo [2] = settings: dog, po
Experimental: Three studies were performed to investigate the pharmacokinetics of oral administration of a scyllo-cyclohexanehexyl (Table 1):
Two studies have investigated the single dose PK of oral administration of a scyllo-cyclohexanehexyl in dogs. The 14 day study investigated 18 animals. On Day 1 of this study Cmax and AUC values increased proportionally with dose level of a scyllo-cyclohexanehexyl. […] The extensive brain penetrance of the scyllo-cyclohexanhexyl (see below) may be relevant in this regard.

in vivo [3] = settings: rat; for kel / Vd: 28 days
Experimental: Plasma PK of a scyllo-cyclohexanehexyl compound in rats was assessed after 28 days oral dosing of 15, 50 and 150 mg/kg, administered twice daily. […] Indeed, at this dose level, the Vdss, clearance and elimination rates appeared to be reduced with repeated dosing. […] As for single doses, the scyllo-cyclohexanehexyl was absorbed rapidly, with mean tmax observed between 1.2 and 1.3 hours post-dose. […] Estimates of MRT were consistent.

[4] = beagle, dogs, single intravenous dose 80 mg/kg
[5] = beagle, dogs, single intravenous dose 240 mg/kg
[6] = beagle, dogs, single oral dose 20 mg/kg
[7] = beagle, dogs, single oral dose 80 mg/kg
[8] = beagle, dogs, single oral dose 240 mg/kg
[9] = dogs, single intravenous dose 80 mg/kg
[10] = dogs, single intravenous dose 240 mg/kg

AUC(0-t) [1, 4]: 167 ± 7 µg·h/mL | MRT [1, 4]: 4.6 ± 1.2 h | Vd [1, 4]: 2.1 L/kg | half-life ([1]; beagle, dogs, single intravenous dose 80 mg/kg, read-out: t1/2 (converted)): 3.3 ± 0.3 h | AUC(0-inf) [1, 5]: 248 ± 25 µg·h/mL | AUC(0-t) [1, 5]: 244 ± 24 µg·h/mL | MRT [1, 5]: 3.3 ± 0.5 h | Vd [1, 5]: 3.22 L/kg | half-life ([1]; beagle, dogs, single intravenous dose 240 mg/kg, read-out: t1/2 (converted)): 2.3 ± 0.2 h | AUC(0-inf) [1, 6]: 51.7 ± 15.7 µg·h/mL | AUC(0-t) [1, 6]: 42.1 ± 8.4 µg·h/mL | CL/F [1, 6]: 0.418 L/h/kg | Cmax [1, 6]: 5.9 ± 3.1 µg/mL | MRT [1, 6]: 10.1 ± 5.9 h | half-life ([1]; beagle, dogs, single oral dose 20 mg/kg, read-out: t1/2 (converted)): 5 ± 3.9 h | AUC(0-inf) [1, 7]: 246 ± 53 µg·h/mL | AUC(0-t) [1, 7]: 243 ± 54 µg·h/mL | CL/F [1, 7]: 0.338 L/h/kg | Cmax [1, 7]: 69 ± 23.5 µg/mL | MRT [1, 7]: 4.1 ± 0.8 h | half-life ([1]; beagle, dogs, single oral dose 80 mg/kg, read-out: t1/2 (converted)): 2 ± 0.3 h | AUC(0-inf) [1, 8]: 489 ± 99 µg·h/mL | AUC(0-t) [1, 8]: 477 ± 94 µg·h/mL | CL/F [1, 8]: 0.507 L/h/kg | Cmax [1, 8]: 89.5 ± 27.8 µg/mL | MRT [1, 8]: 5.2 ± 0.2 h | half-life ([1]; beagle, dogs, single oral dose 240 mg/kg, read-out: t1/2 (converted)): 2 ± 0.4 h | half-life ([1]; other: oral and intravenous (range over both routes), beagle dogs, 20, 80 and 240 mg/kg p.o., 80 and 240 mg/kg i.v., read-out: t½): 2 to 5 h | Cp0 [1, 9]: 87.2 ± 13.2 µg/mL | kel [1, 9]: 0.21 ± 0.02 h⁻¹ | Cp0 [1, 10]: 127.9 ± 19.1 µg/mL | kel [1, 10]: 0.30 ± 0.02 h⁻¹ | kel ([1]; dogs, single oral dose 20 mg/kg): 0.2 ± 0.2 h⁻¹ | kel ([1]; dogs, single oral dose 80 mg/kg): 0.4 ± 0.1 h⁻¹ | kel ([1]; dogs, single oral dose 240 mg/kg): 0.4 ± 0.1 h⁻¹ | AUC(0-inf) (in vivo [2]; 15 mg/kg): 23.8 ± 4.5 µg·h/mL | AUC(0-t) (in vivo [2]; 15 mg/kg): 22.6 ± 4.5 µg·h/mL | CL/F (in vivo [2]; 15 mg/kg): 0.182 L/h/kg | Cmax (in vivo [2]; 15 mg/kg): 10 ± 2.5 µg/mL | MRT (in vivo [2]; 15 mg/kg): 3.5 ± 0.8 h | Tmax (in vivo [2]; 15 mg/kg): 1.7 ± 0.5 h | VdSS (in vivo [2]; 15 mg/kg): 0.6325 ± 0.2371 L/kg | half-life (in vivo [2]; 15 mg/kg): 2 ± 0.8 h | kel (in vivo [2]; 15 mg/kg): 0.4 ± 0.2 h⁻¹ | AUC(0-inf) (in vivo [2]; 50 mg/kg): 116 ± 22.8 µg·h/mL | AUC(0-t) (in vivo [2]; 50 mg/kg): 114 ± 22.9 µg·h/mL | CL/F (in vivo [2]; 50 mg/kg): 0.124 L/h/kg | Cmax (in vivo [2]; 50 mg/kg): 47.4 ± 12.7 µg/mL | MRT (in vivo [2]; 50 mg/kg): 2.9 ± 0.3 h | Tmax (in vivo [2]; 50 mg/kg): 1.2 ± 0.4 h | VdSS (in vivo [2]; 50 mg/kg): 0.3659 ± 0.1219 L/kg | half-life (in vivo [2]; 50 mg/kg): 2.1 ± 0.3 h | kel (in vivo [2]; 50 mg/kg): 0.3 ± 0.04 h⁻¹ | AUC(0-inf) (in vivo [2]; 150 mg/kg): 455 ± 121 µg·h/mL | AUC(0-t) (in vivo [2]; 150 mg/kg): 450 ± 118 µg·h/mL | CL/F (in vivo [2]; 150 mg/kg): 0.0937 L/h/kg | Cmax (in vivo [2]; 150 mg/kg): 124 ± 22.7 µg/mL | MRT (in vivo [2]; 150 mg/kg): 3.3 ± 0.3 h | Tmax (in vivo [2]; 150 mg/kg): 2.2 ± 0.4 h | VdSS (in vivo [2]; 150 mg/kg): 0.3074 ± 0.0744 L/kg | half-life (in vivo [2]; 150 mg/kg): 1.7 ± 0.2 h | kel (in vivo [2]; 150 mg/kg): 0.4 ± 0.05 h⁻¹ | kel (in vivo [3]; 15 mg/kg): 0.16 ± 0.03 h⁻¹ | kel (in vivo [3]; 50 mg/kg): 0.21 ± 0.03 h⁻¹ | kel (in vivo [3]; 150 mg/kg): 0.22 ± 0.02 h⁻¹ | AUC(0-inf) (in vivo [3]; po, 15 mg/kg): 195 ± 71.7 µg·h/mL | AUC(0-t) (in vivo [3]; po, 15 mg/kg): 161 ± 57.7 µg·h/mL | CL/F at 28 days (in vivo [3]; po, 15 mg/kg): 0.174 L/h/kg | Cmax at 28 days (in vivo [3]; po, 15 mg/kg): 28.5 ± 4.9 µg/mL | MRT at 28 days (in vivo [3]; po, 15 mg/kg): 6.7 ± 0.6 h | Tmax (in vivo [3]; po, 15 mg/kg): 1.3 ± 0.5 h | half-life at 28 days (in vivo [3]; po, 15 mg/kg): 4.4 ± 0.6 h | Vd (in vivo [3]; po, 15 mg/kg): 1.14 L/kg | AUC(0-inf) (in vivo [3]; po, 50 mg/kg): 298 ± 82.2 µg·h/mL | AUC(0-t) (in vivo [3]; po, 50 mg/kg): 271 ± 70.7 µg·h/mL | CL/F at 28 days (in vivo [3]; po, 50 mg/kg): 0.357 L/h/kg | Cmax at 28 days (in vivo [3]; po, 50 mg/kg): 59.4 ± 8.4 µg/mL | MRT at 28 days (in vivo [3]; po, 50 mg/kg): 4.9 ± 0.8 h | Tmax (in vivo [3]; po, 50 mg/kg): 1.2 ± 0.4 h | half-life at 28 days (in vivo [3]; po, 50 mg/kg): 3.3 ± 0.5 h | Vd (in vivo [3]; po, 50 mg/kg): 1.73 L/kg | AUC(0-inf) (in vivo [3]; po, 150 mg/kg): 615 ± 129 µg·h/mL | AUC(0-t) (in vivo [3]; po, 150 mg/kg): 573 ± 128 µg·h/mL | CL/F at 28 days (in vivo [3]; po, 150 mg/kg): 0.504 L/h/kg | Cmax (in vivo [3]; po, 150 mg/kg): 171 ± 79.9 µg/mL | MRT at 28 days (in vivo [3]; po, 150 mg/kg): 4.6 ± 0.8 h | Tmax (in vivo [3]; po, 150 mg/kg): 1.2 ± 0.4 h | half-life at 28 days (in vivo [3]; po, 150 mg/kg): 3.1 ± 0.3 h | Vd (in vivo [3]; po, 150 mg/kg): 2.34 L/kg
Structure (SMILES): OC1C(O)C(O)C(O)C(O)C1O (centres unmarked) [AZD-103, scyllo-inositol]

Source: patent publication US20100113613A1, “CYCLOHEXANE POLYALCOHOL FORMULATION FOR TREATMENT OF DISORDERS OF PROTEIN AGGREGATION” (WARATAH PHARMACEUTICALS, priority 2006, published 2010)
